Experimental data taken from BindingDB's records for patent US12497405 (Merck Sharp & Dohme, 2025).

Experiments:
[1] = target: T1, DNA polymerase catalytic subunit (Human cytomegalovirus (strain AD169), UniProt P08546); experiment: CMV and VZV Polymerase Assays
T1 sequence (P08546 whole entry): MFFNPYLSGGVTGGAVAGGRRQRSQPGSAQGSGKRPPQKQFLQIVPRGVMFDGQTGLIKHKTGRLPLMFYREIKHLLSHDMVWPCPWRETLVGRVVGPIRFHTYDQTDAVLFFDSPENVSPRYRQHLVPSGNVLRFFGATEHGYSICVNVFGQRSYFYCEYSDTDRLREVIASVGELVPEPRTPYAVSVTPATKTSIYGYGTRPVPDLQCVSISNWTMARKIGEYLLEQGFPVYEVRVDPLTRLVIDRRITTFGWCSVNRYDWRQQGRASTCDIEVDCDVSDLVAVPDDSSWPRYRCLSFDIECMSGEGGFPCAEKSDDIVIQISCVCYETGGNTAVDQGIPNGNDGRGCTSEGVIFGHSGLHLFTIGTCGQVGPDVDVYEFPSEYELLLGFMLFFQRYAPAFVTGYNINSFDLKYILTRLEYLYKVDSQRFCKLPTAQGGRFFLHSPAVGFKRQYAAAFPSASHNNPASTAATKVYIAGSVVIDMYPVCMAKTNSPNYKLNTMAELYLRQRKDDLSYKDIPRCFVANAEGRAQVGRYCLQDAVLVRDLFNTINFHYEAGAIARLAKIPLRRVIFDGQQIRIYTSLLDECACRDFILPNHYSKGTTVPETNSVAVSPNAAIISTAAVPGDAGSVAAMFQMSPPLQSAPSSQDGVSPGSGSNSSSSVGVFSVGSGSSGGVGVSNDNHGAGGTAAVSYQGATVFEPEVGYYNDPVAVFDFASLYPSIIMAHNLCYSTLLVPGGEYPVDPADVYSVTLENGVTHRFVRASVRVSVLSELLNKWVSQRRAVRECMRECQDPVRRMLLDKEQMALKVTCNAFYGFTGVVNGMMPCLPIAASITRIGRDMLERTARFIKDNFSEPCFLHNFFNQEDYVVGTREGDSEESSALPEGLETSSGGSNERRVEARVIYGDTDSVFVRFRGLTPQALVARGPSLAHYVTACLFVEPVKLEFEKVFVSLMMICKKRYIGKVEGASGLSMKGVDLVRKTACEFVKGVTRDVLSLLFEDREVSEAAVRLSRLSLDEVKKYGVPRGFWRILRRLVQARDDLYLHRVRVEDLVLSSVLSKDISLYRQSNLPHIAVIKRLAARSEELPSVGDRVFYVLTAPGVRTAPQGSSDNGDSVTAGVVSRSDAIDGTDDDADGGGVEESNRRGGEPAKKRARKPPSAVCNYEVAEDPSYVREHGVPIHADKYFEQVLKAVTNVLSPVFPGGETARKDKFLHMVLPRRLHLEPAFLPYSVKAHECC
Protocol: (§1) Human cytomegalovirus and varicella zoster virus DNA polymerases were expressed via baculovirus vector in SF21 cells and purified. Heterodimeric nucleic acid substrate used in the herpesvirus polymerase reactions were generated by annealing a 59-mer template to a 17-mer digoxigenin-labeled primer. Polymerase (HCMV final concentration of 0.2 nM; VZV final concentration of 0.4 nM) was combined with an inhibitor compound or DMSO in assay buffer (10 mM HEPES, pH 7.5, 25 mM KCl, 25 mM NaCl, 5 mM MgCl2, 5% glycerol, 0.67 mg/ml bovine serum albumin, and 1 mM tris(2-carboxyethyl)phosphine)), and this mixture was pre-incubated for 30 minutes at room temperature in 384-well microtiter plates. The polymerization reaction was initiated by the addition of template/primer substrate (final concentration: 1.6 nM), and dNTPs (final concentration: 24 nM dCTP, 24 nMdGTP, 16 nM dATP, 16 nM dTTP, and 0.8 nM biotin-dUTP). After a 60 minute incubation period at 37° C., the reactions were terminated using quench buffer (25 mM HEPES pH 7.5, 100 mM NaCl, 0.25% Tween-20, 12 mM EDTA, and 1 mg/ml bovine serum albumin). Incorporation of biotinylated UTP was detected with 2.5-5 μg/mL anti-DIG AlphaLISA acceptor beads and 5-10 μg/mL streptavidin AlphaLISA donor beads (PerkinElmer). […]

[2] = target: T2, DNA polymerase catalytic subunit (Varicella-zoster virus (strain Dumas), UniProt P09252); experiment: CMV and VZV Polymerase Assays
T2 sequence (P09252 whole entry): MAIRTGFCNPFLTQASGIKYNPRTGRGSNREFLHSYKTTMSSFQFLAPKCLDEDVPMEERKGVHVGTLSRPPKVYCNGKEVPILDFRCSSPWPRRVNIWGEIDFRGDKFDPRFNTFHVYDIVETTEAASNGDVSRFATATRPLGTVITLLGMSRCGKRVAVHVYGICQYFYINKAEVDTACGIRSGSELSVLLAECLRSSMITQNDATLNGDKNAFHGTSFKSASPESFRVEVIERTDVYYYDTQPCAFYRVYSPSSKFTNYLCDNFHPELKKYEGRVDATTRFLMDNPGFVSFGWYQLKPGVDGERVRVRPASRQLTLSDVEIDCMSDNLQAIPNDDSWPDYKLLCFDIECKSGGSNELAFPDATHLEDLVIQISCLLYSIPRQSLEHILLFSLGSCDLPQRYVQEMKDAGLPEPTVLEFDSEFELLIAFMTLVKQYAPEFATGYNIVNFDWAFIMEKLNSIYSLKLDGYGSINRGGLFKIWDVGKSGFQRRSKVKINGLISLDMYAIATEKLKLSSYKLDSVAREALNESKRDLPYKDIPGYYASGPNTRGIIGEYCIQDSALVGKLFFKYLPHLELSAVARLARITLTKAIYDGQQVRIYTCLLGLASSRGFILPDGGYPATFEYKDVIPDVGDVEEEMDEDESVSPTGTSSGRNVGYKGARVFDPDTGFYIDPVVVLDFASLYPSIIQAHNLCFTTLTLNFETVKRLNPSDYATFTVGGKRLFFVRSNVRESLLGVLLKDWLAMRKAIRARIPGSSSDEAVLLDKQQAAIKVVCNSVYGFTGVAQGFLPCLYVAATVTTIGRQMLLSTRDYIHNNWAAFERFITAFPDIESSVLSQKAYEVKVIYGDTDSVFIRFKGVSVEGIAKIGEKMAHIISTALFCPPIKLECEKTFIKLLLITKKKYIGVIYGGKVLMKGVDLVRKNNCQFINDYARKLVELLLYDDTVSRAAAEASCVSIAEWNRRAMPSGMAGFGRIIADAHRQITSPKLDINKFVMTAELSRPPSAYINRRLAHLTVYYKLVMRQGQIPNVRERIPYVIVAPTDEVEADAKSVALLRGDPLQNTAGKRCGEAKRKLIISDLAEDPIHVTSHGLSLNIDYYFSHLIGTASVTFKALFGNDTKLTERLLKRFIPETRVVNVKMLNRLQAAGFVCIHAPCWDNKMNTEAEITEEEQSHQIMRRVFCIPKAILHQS
Protocol: as §1

## O=C1OC[C@@H]2C[C@@H](Oc3cc4c(=O)n(Cc5ccc(Cl)cc5)cnc4nc3-c3cnco3)CCN12 [US12497405, Compound 37]
[1]
  IC50: 1.1 nM
[2]
  IC50: 0.22 nM
